≈ marks a conversion by molar mass, not a printed value. Where two headings read alike, the source gives them in different places.
Experiments:
[1] = tested on: Escherichia coli ATCC 25922; experiment: Broth microdilution antibacterial susceptibility (MIC/MBC); assay type: cell-based; details: for MIC / MBC: Escherichia coli; for MIC: ATCC25922, 24 h
In short: (§1)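 CLSI broth microdilution: Ca/Mg-supplemented Mueller-Hinton for bacteria (~5 × 10^5 CFU/mL, 24 h), MOPS-buffered RPMI 1640 pH 7.0 for fungi (Candida ~2.5 × 10^4, Aspergillus 0.4-5 × 10^4 CFU/mL, 48 h), 35°C, 1% DMSO, 64 to 0.12 μg/mL. MIC read visually; MBC/MFC by plating clear wells.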

[2] = tested on: Pseudomonas aeruginosa ATCC 27853; experiment: as above; assay type: cell-based; details: for MIC / MBC: Pseudomonas aeruginosa; for MIC: ATCC27853, 24 h
In short: as §1

[3] = tested on: Staphylococcus aureus ATCC 29213; experiment: as above; assay type: cell-based; details: Staphylococcus aureus; for MIC: ATCC29213, 24 h
In short: as §1

[4] = tested on: Staphylococcus epidermidis ATCC 14990; experiment: as above; assay type: cell-based; details: for MIC / MBC: Staphylococcus epidermidis; for MIC: ATCC14990, 24 h
In short: as §1

[5] = tested on: L. donovani promastigotes; experiment: Promastigote cellular morphology by phase-contrast microscopy; assay type: cell-based, Leishmania donovani; details: 1 μM, 72 h
Method: Changes in the cellular morphology of Leishmania parasites as a result of compounds 9, 12, 14, and 18 treatment was observed microscopically. Briefly, the promastigotes (2 × 10^6 cells/mL) were incubated in the absence or presence of compounds and AmB for 72 h at a concentration of 1 μM and observed under 40 × objective of a phase-contrast microscope. […] Data were recorded by using NIS-Elements imaging software (Paris et al., [2004]).

[6] = tested on: L. donovani intracellular amastigotes; experiment: Anti-amastigote activity in ex vivo macrophage model; assay type: cell-based, Leishmania donovani; details: 48 h; for Clearance of intracellular amastigotes in Giemsa-stained micrographs: 1.56 μM; for IC50: Leishmania donovani, Peritoneal macrophage, in Mus musculus, read-out: L. donovani amastigotes IC50 ± SEM
From the text: BALB/c mice was used for the isolation of peritoneal macrophages in the ex vivo anti-amastigote study after prior approval from the Jamia Hamdard Animal Ethics Committee (JHAEC). JHAEC is registered under the Committee for the purpose of supervision and control of experiments on animals (CPCSEA). Mice were individually housed in the Central Animal House of Jamia Hamdard as per internationally accepted norms. The mice were kept in standard size polycarbonate cages under controlled conditions of temperature (23 ± 1°C), humidity (55 ± 10%), 12:12 h of light and dark cycle and fed with standard pellet diet and filtered water (ad libitum).
Macrophages from the peritonial cavity of BALB/c mice (1 × 10^6 cellsml^−1) were allowed to adhere to round glass coverslips in a 24 well tissue culture plate and incubated for 12 h at 37°C in a CO2 incubator. After removal of the non-adherent macrophages, the cells were infected with stationary phase promastigotes using a cell to parasite ratio of 1:10 and incubated at 37°C for 24 h. The non-phagocytosed parasites were removed by washing, and the infected macrophages incubated with the test compounds 9, 12, 14, and 18 (0–25 μM) for an additional 48 h. The coverslips were fixed in methanol and giemsa-stained for microscopic evaluation (100X) of amastigote infectivity. Number of amastigotes per 100 macrophages were enumerated and the concentration that decreased amastigotes by 50% (IC50) was determined (Wong et al., [2012]; Islamuddin et al., [2014a]).
In vitro antileishmanial activity was expressed as IC50 by linear regression analysis. Values are mean ± SE of samples in triplicate from at least three independent experiments. Statistical analysis was performed using ANOVA followed by Dunnett's test. ^*P < 0.05, ^**P < 0.01 and ^***P < 0.001 compared with the untreated control group were considered significant.

[7] = read-out: MIC, Ec ATCC 25922, broth microdilution, 35°C, 24 h
[8] = ATCC25922, read-out: MBC, Ec ATCC 25922
[9] = broth microdilution, 35°C, 24 h
[10] = read-out: MIC, Pa ATCC 27853, broth microdilution, 35°C, 24 h
[11] = ATCC27853, read-out: MBC, Pa ATCC 27853
[12] = ATCC29213, read-out: MBC, Sa ATCC 29213
[13] = read-out: MIC, Se ATCC 14990, broth microdilution, 35°C, 24 h
[14] = ATCC14990, read-out: MBC, Se ATCC 14990
[15] = ATCC25922, ≥99.9% reduction of original inoculum, read-out: MBC, Ec ATCC 25922
[16] = ATCC27853, ≥99.9% reduction of original inoculum, read-out: MBC, Pa ATCC 27853
[17] = ATCC29213, ≥99.9% reduction of original inoculum, read-out: MBC, Sa ATCC 29213
[18] = ATCC14990, ≥99.9% reduction of original inoculum, read-out: MBC, Se ATCC 14990
[19] = intracellular amastigotes in BALB/c peritoneal macrophages

| Structure (SMILES) | MIC [1, 7] | MBC [1, 8] | MIC [2, 10] | MBC [2, 11] | MBC [3, 12] | MIC [4, 13] | MBC [4, 14] | Cellular morphological alterations of promastigotes [5] | Clearance of intracellular amastigotes in Giemsa-stained micrographs [6] | IC50 [6] | MBC [1, 15] | MBC [2, 16] | MBC [3, 17] | MBC [4, 18] | IC50 [6, 19] | other results |
| --- | --- | --- | --- | --- | --- | --- | --- | --- | --- | --- | --- | --- | --- | --- | --- | --- |
| CC/C(=C\c1ccc([N+](=O)[O-])cc1)[N+](=O)[O-] [Compound 9, 1-nitro-4-((E)-2-nitrobut-1-enyl) benzene] | 16 to 32 µg/mL (≈ 72 to 144 µM) | 32 µg/mL (≈ 144 µM) | 16 to 32 µg/mL (≈ 72 to 144 µM) | 32 µg/mL (≈ 144 µM) | 8 µg/mL (≈ 36 µM) | 2 to 16 µg/mL (≈ 9 to 72 µM) | 4 µg/mL (≈ 18 µM) | altered to an ovoid shape with cell shrinkage, loss of flagella, cytoplasmic condensation | almost total clearance | 30.5 ± 3.42 nM |  |  |  |  |  | MIC, Ec ATCC 25922 [1, 9]: 16 µg/mL (≈ 72 µM); MIC, Pa ATCC 27853 [2, 9]: 16 µg/mL (≈ 72 µM); MIC, Se ATCC 14990 [4, 9]: 4 µg/mL (≈ 18 µM) |
| CC/C(=C\c1cccc([N+](=O)[O-])c1)[N+](=O)[O-] [Compound 12, 1-nitro-3-((E)-2-nitrobut-1-enyl) benzene] | 16 µg/mL (≈ 72 µM) | 16 µg/mL (≈ 72 µM) | 16 µg/mL (≈ 72 µM) | 16 µg/mL (≈ 72 µM) | 0.5 µg/mL (≈ 2.25 µM) | 0.25 µg/mL (≈ 1.13 µM) | 0.25 µg/mL (≈ 1.13 µM) | altered to an ovoid shape with cell shrinkage, loss of flagella, cytoplasmic condensation | almost total clearance | 21.5 ± 0.96 nM |  |  |  |  |  | MIC ([3]; read-out: MIC, Sa ATCC 29213, broth microdilution, 35°C, 24 h): 0.5 µg/mL (≈ 2.25 µM) |
| COc1ccc(/C=C(\C)[N+](=O)[O-])cc1 [Compound 14, 1-methoxy-4-((E)-2-nitroprop-1-enyl) benzene] |  |  |  |  |  |  |  | altered to an ovoid shape with cell shrinkage, loss of flagella, cytoplasmic condensation | almost total clearance |  | > 64 µg/mL | > 64 µg/mL | 8 µg/mL (≈ 41.4 µM) | 4 µg/mL (≈ 20.7 µM) | 26.4 ± 2.71 nM | MIC ([1]; broth microdilution, 35°C, 24 h, read-out: MIC, Ec ATCC 25922): 64 µg/mL (≈ 331 µM); MIC ([2]; broth microdilution, 35°C, 24 h, read-out: MIC, Pa ATCC 27853): > 64 µg/mL; MIC ([3]; broth microdilution, 35°C, 24 h, read-out: MIC, Sa ATCC 29213): 8 µg/mL (≈ 41.4 µM); MIC ([4]; broth microdilution, 35°C, 24 h, read-out: MIC, Se ATCC 14990): 4 µg/mL (≈ 20.7 µM) |
| CC/C(=C\c1ccc(O)cc1)[N+](=O)[O-] [Compound 18, 4-((E)-2-nitrobut-1-enyl) phenol] |  |  |  |  |  |  |  | altered to an ovoid shape with cell shrinkage, loss of flagella, cytoplasmic condensation | almost total clearance |  | > 64 µg/mL | > 64 µg/mL | 16 µg/mL (≈ 82.8 µM) | 8 µg/mL (≈ 41.4 µM) | 61.6 ± 8.02 nM |  |

— publication PMC5007854, “β-Nitrostyrenes as Potential Anti-leishmanial Agents” (Frontiers in Microbiology, 2016)
